Results: patent publication US20220380829A1, “Method of Diagonosizing Pathogens and their Antimicrobial Susceptibility” (HANGZHOU DIAN MEDICAL LABORATORY CO., LTD., priority 2019, published 2022)

What was measured:
Type in all cases: cell-based
[1] = test system: Candida tropicalis; test: Broth microdilution (M27-A3, M27-S4), gold standard culture-based AST
[2] = test system: Enterococcus faecalis; test: VITEK2 Compact AST (AST-P639 cards), gold standard culture-based AST; note: key: ‘R’ indicates drug-resistant; ‘S’ indicates drug-susceptible
[3] = test system: Streptococcus pneumoniae; test: VITEK2 Compact AST (AST-GP68 cards) with penicillin disc diffusion, gold standard culture-based AST; note: key: ‘R’ indicates drug-resistant; ‘S’ indicates drug-susceptible
Description: Step 1. Drug susceptibility verification: The Streptococcus pneumoniae isolates were tested for drug susceptibility using bioMérieux Vitek2 Compact System and AST-GP68 cards, and specifically, the susceptibility of penicillin was double checked by disc diffusion method (OXOID, CT0043B), and the combined results were used as the gold standard (culture-based AST).
Step 1. Sample collection and drug susceptibility verification: 48 clinical Streptococcus pneumoniae isolates were collected from 18 hospitals across china in a period between May 2017 and October 2019. All isolates were tested for drug susceptibility using bioMérieux Vitek2 Compact System and AST-GP68 card, and specifically, the susceptibility of penicillin was double checked by disc diffusion method (OXOID, CT0043B), and the combined results were used as the gold standard (culture-based AST).

[4] = test system: Acinetobacter baumannii; test: VITEK2 Compact AST (AST-N335 cards), gold standard culture-based AST; note: key: ‘R’ indicates drug-resistant; ‘S’ indicates drug-susceptible
Description: Step 1. Drug susceptibility verification: The Acinetobacter baumannii isolates were tested for drug susceptibility using bioMérieux Vitek2 Compact System and AST-N335 cards, and the results were used as the gold standard (culture-based AST).

[5] = Resistance profile classification A
[6] = Resistance profile classification B
[7] = Resistance profile classification C
[8] = Resistance profile classification D
[9] = Resistance profile classification F (first line so labelled, r12)
[10] = Resistance profile classification F (second line so labelled, r13)
[11] = Resistance profile classification G
[12] = Resistance profile classification H
[13] = Resistance profile classification I
[14] = Resistance profile classification J
[15] = Resistance profile classification K
[16] = Resistance profile classification L
[17] = Resistance profile classification M
[18] = Resistance profile classification S
[19] = Resistance profile classification E
[20] = Resistance profile classification F

Compound	Resistance profiles by broth microdilution (the gold standard) ([1]; blind-1)	Resistance profiles by broth microdilution (the gold standard) ([1]; blind-2)	Resistance profiles by broth microdilution (the gold standard) ([1]; blind-3)	Resistance profiles by broth microdilution (the gold standard) ([1]; blind-4)	Resistance profiles by broth microdilution (the gold standard) ([1]; blind-5)	Resistance profiles by broth microdilution (the gold standard) ([1]; blind-6)	Susceptibility of Emterococcus faecalis to 11 antibacterial drugs [2, 5]	Susceptibility of Emterococcus faecalis to 11 antibacterial drugs [2, 6]	Susceptibility of Emterococcus faecalis to 11 antibacterial drugs [2, 7]	Susceptibility of Emterococcus faecalis to 11 antibacterial drugs [2, 8]	Susceptibility of Emterococcus faecalis to 11 antibacterial drugs [2, 9]	Susceptibility of Emterococcus faecalis to 11 antibacterial drugs [2, 10]	Susceptibility of Emterococcus faecalis to 11 antibacterial drugs [2, 11]	Susceptibility of Emterococcus faecalis to 11 antibacterial drugs [2, 12]	Susceptibility of Emterococcus faecalis to 11 antibacterial drugs [2, 13]	Susceptibility of Emterococcus faecalis to 11 antibacterial drugs [2, 14]	Susceptibility of Emterococcus faecalis to 11 antibacterial drugs [2, 15]	Susceptibility of Emterococcus faecalis to 11 antibacterial drugs [2, 16]	Susceptibility of Emterococcus faecalis to 11 antibacterial drugs [2, 17]	Susceptibility of Emterococcus faecalis to 11 antibacterial drugs [2, 18]	further results
CCC(C)n1ncn(-c2ccc(N3CCN(c4ccc(OCC5COC(Cn6cncn6)(c6ccc(Cl)cc6Cl)O5)cc4)CC3)cc2)c1=O (stereo not shown) [ITR]	R	S	R	R	S	S															
Nc1nc(=O)[nH]cc1F [5-FC]	S	S	S	S	S	S															
C[C@@H](c1ncncc1F)[C@](O)(Cn1cncn1)c1ccc(F)cc1F [VOR]	R	S	R	R	S	S															
CC1(C)S[C@@H]2[C@H](NC(=O)[C@H](N)c3ccccc3)C(=O)N2[C@H]1C(=O)O [ampicillin]							R	R	R	R	R	R	S	S	S	S	S	S	S	S	Susceptibility of Streptococcus pneumoniae to 14 antibacterial drugs [3, 5]: R; Susceptibility of Streptococcus pneumoniae to 14 antibacterial drugs [3, 6]: R; Susceptibility of Streptococcus pneumoniae to 14 antibacterial drugs [3, 7]: R; Susceptibility of Streptococcus pneumoniae to 14 antibacterial drugs [3, 8]: R; Susceptibility of Streptococcus pneumoniae to 14 antibacterial drugs [3, 19]: R; Susceptibility of Streptococcus pneumoniae to 14 antibacterial drugs [3, 20]: R; Susceptibility of Streptococcus pneumoniae to 14 antibacterial drugs [3, 11]: S; Susceptibility of Streptococcus pneumoniae to 14 antibacterial drugs [3, 12]: S; Susceptibility of Streptococcus pneumoniae to 14 antibacterial drugs [3, 13]: S; Susceptibility of Streptococcus pneumoniae to 14 antibacterial drugs [3, 14]: S; Susceptibility of Streptococcus pneumoniae to 14 antibacterial drugs [3, 18]: S
CN[C@H](CC(C)C)C(=O)N[C@H]1C(=O)N[C@@H](CC(N)=O)C(=O)N[C@H]2C(=O)N[C@H]3C(=O)N[C@H](C(=O)N[C@H](C(=O)O)c4cc(O)cc(O)c4-c4cc3ccc4O)[C@H](O)c3ccc(c(Cl)c3)Oc3cc2cc(c3O[C@@H]2O[C@H](CO)[C@@H](O)[C@H](O)[C@H]2O[C@H]2C[C@](C)(N)[C@H](O)[C@H](C)O2)Oc2ccc(cc2Cl)[C@H]1O [vancomycin]							S	S	S	S	S	S	S	S	S	S	S	S	S	S	Blind 1 by AST [3]: S; blind 2 by AST [3]: S
C[C@@H]1[C@H](O)[C@@H](C)/C=C/C=C/C=C/C=C/C=C/C=C/C=C/[C@H](O[C@@H]2O[C@H](C)[C@@H](O)[C@H](N)[C@@H]2O)C[C@@H]2O[C@](O)(C[C@@H](O)C[C@@H](O)[C@H](O)CC[C@@H](O)C[C@@H](O)CC(=O)O[C@H]1C)C[C@H](O)[C@H]2C(=O)O [AMB]	S	S	S	S	S	S															
CC[C@H](C)C[C@H](C)CCCCCCCCC(=O)N[C@H]1C[C@@H](O)[C@@H](NCCN)NC(=O)[C@@H]2[C@@H](O)CCN2C(=O)[C@H]([C@H](O)CCN)NC(=O)[C@H]([C@H](O)[C@@H](O)c2ccc(O)cc2)NC(=O)[C@@H]2C[C@@H](O)CN2C(=O)[C@H]([C@@H](C)O)NC1=O [CAS]	S	S	S	S	S	S															
CC[C@H]1OC(=O)[C@H](C)[C@@H](O[C@H]2C[C@@](C)(OC)[C@@H](O)[C@H](C)O2)[C@H](C)[C@@H](O[C@@H]2O[C@H](C)C[C@H](N(C)C)[C@H]2O)[C@](C)(O)C[C@@H](C)C(=O)[C@H](C)[C@@H](O)[C@]1(C)O [erythromycin]							R	R	R	S	R	R	R	R	R	R	S	S	S	S	Blind 1 by AST [3]: R; blind 2 by AST [3]: R
CCN1CCN(C(=O)N[C@@H](C(=O)N[C@@H]2C(=O)N3[C@@H]2SC(C)(C)[C@@H]3C(=O)O)c2ccccc2)C(=O)C1=O [pipercillin, piperacillin]																					Suscepibility of Acinetobacter baumannii to 12 antibacterial drugs [4, 5]: R; Suscepibility of Acinetobacter baumannii to 12 antibacterial drugs [4, 6]: R; Suscepibility of Acinetobacter baumannii to 12 antibacterial drugs [4, 7]: R; Suscepibility of Acinetobacter baumannii to 12 antibacterial drugs [4, 8]: R; Suscepibility of Acinetobacter baumannii to 12 antibacterial drugs [4, 19]: R; Suscepibility of Acinetobacter baumannii to 12 antibacterial drugs [4, 20]: R; Suscepibility of Acinetobacter baumannii to 12 antibacterial drugs [4, 11]: R; Suscepibility of Acinetobacter baumannii to 12 antibacterial drugs [4, 12]: R; Suscepibility of Acinetobacter baumannii to 12 antibacterial drugs [4, 13]: R; Suscepibility of Acinetobacter baumannii to 12 antibacterial drugs [4, 14]: R; Suscepibility of Acinetobacter baumannii to 12 antibacterial drugs [4, 15]: R; Suscepibility of Acinetobacter baumannii to 12 antibacterial drugs [4, 16]: R; Suscepibility of Acinetobacter baumannii to 12 antibacterial drugs [4, 17]: R; Suscepibility of Acinetobacter baumannii to 12 antibacterial drugs ([4]; Resistance profile classification N): R; Suscepibility of Acinetobacter baumannii to 12 antibacterial drugs ([4]; Resistance profile classification O): S; Suscepibility of Acinetobacter baumannii to 12 antibacterial drugs ([4]; Resistance profile classification P): S; Suscepibility of Acinetobacter baumannii to 12 antibacterial drugs ([4]; Resistance profile classification Q): S; Suscepibility of Acinetobacter baumannii to 12 antibacterial drugs ([4]; Resistance profile classification R): S; Suscepibility of Acinetobacter baumannii to 12 antibacterial drugs [4, 18]: S
